In brackets after ≈: the same amount, converted by molar mass.
What was measured:
Mus musculus [1] = organism: Mus musculus; experiment: Sedative hypnotic activity in mouse; type: functional; design: concentration or dose not given beside the values
[2] = biological target: Histamine H2 receptor (Homo sapiens) (UniProt P25021); experiment: Inhibition of histamine h2 (unknown origin)
[3] = Therapeutic index, ratio of IC50 for antiviral activity against HIV infected in human H9 cells to EC50 for antiviral activity against HIV infected in human H9 cells; type: toxicity, cell-based; details: human immunodeficiency virus, H9 cells infected with HIV; read-out: Ratio IC50/EC50
[4] = system: Human immunodeficiency virus; experiment: Antiviral activity against HIV infected in human H9 cells; type: functional, organism-based; details: Human immunodeficiency virus 1, H9
Rattus norvegicus = experiment: Antiinflammatory activity in carrageenan induced rat at assessed as reduction in paw edema 50 mg/kg, ip measured after […] relative to control; type: functional; design: scale not given: the % may be the effect or the level left
Oryctolagus cuniculus = experiment: Antihypertensive activity in po dosed rabbit assessed as decrease in 30mmhg of systolic blood pressure measured after 4 to 6 hrs; type: functional; details: time 4-6 hrs
Plasmodium falciparum = experiment: Antimalarial activity against plasmodium falciparum 3D7 assessed as bacterial growth inhibition; type: functional, organism-based
Canis familiaris = experiment: Antiplatelet activity in iv dosed dog assessed as platelet aggregation; type: functional, organism-based; details: Canis lupus familiaris
Vaccinia virus [5] = experiment: Antiviral activity against Vaccinia virus infected in human MT4 cells measured after 5 days by MTT assay; type: functional, organism-based; details: Orthopoxvirus vaccinia, MT4, 120 h
Vaccinia virus [6] = experiment: Antiviral activity against Vaccinia virus infected in human E6SM cells; type: functional; details: Orthopoxvirus vaccinia
Mus musculus [7] = experiment: Anticonvulsant activity in ip dosed mouse assessed as reduction in tonus phase; type: functional
Mus musculus [8] = experiment: Anticonvulsant activity in ip dosed mouse assessed as reduction in clonus phase; type: functional
[9] = system: Human immunodeficiency virus 1; experiment: Antiviral activity against HIV-1 infected in human MT4 cells assessed as protection against virus-induced cytotoxicity relative to control; type: functional; design: concentration or dose not given beside the values
[10] = system: Human immunodeficiency virus 2; experiment: Antiviral activity against HIV-2 infected in human MT4 cells assessed as protection against virus-induced cytotoxicity relative to control; type: functional; design: concentration or dose not given beside the values
Ovarian carcinoma cell = experiment: Anticancer activity against human Ovarian carcinoma cell assessed as cell growth inhibition; type: functional; details: read-out: ED50 (the source's name)
[11] = Anticancer activity against human Epidermoid carcinoma cell line assessed as cell growth inhibition; type: functional; details: read-out: ED50 (the source's name)
HeLa = experiment: Anticancer activity against human HeLa cells assessed as cell growth inhibition incubated for 24 hrs by MTT assay; type: functional, cell-based
MDA-MB-231 = experiment: Anticancer activity against human MDA-MB-231 cells assessed as cell growth inhibition incubated for 24 hrs by MTT assay; type: functional, cell-based; details: MDA-MB-231, 24 h
CCRF-CEM = experiment: Anticancer activity against human CCRF-CEM cell assessed as cell growth inhibition measured after 120 hrs; type: functional, cell-based
WIL2 = experiment: Anticancer activity against human WIL2 cell assessed as cell growth inhibition measured after 120 hrs; type: functional, cell-based; details: WIL2, 120 h
Cytomegalovirus = experiment: Antiviral activity against Cytomegalovirus; details: Human betaherpesvirus 5
Mus musculus [12] = experiment: Anticonvulsant activity in mouse at 100 mg/kg, po measured after 30 mins relative to control; type: functional; details: 0.5 h
Mus musculus [13] = experiment: Sedative activity in mouse assessed as sleeping time at 100 mg/kg, ip; type: functional
Mus musculus [14] = experiment: Sedative activity in mouse assessed as sleeping time at 30 mg/kg, ip; type: functional
[15] = Cytotoxicity against human CEM/ADR5000 cells assessed as reduction in cell growth; type: toxicity, cell-based
[16] = Inhibition of HCV RNA IRES IIa by FRET assay; design: species or system Hepacivirus hominis

Histamine H2 receptor (Homo sapiens), sequence (P25021 whole entry): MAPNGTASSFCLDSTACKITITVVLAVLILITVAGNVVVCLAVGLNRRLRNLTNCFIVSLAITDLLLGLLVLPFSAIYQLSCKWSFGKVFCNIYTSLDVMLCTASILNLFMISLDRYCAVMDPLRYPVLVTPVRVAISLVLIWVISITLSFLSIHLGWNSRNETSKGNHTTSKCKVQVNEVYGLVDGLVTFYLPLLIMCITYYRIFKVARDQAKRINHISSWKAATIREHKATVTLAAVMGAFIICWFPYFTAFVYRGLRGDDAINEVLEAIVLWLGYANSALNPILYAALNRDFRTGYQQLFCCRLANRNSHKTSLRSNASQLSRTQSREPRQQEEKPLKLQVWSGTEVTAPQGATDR

CCCc1nnc2n(-c3cccc(C)c3)c(=O)c3ccccc3n12
Activity (Mus musculus [1]): 4%

O=c1[nH]c(NCCCOc2cccc(CN3CCCCC3)c2)nc2ccccc12
pKb [2]: 7.39

Cc1cccc(-n2c(=O)c3ccccc3n3c(C)nnc23)c1
Activity (Mus musculus [1]): 4%

COc1cc2nc(-c3ccccc3F)nc(O)c2cc1OC
selectivity ratio [3]: 9.17 | EC50 [4]: 10900 nM | IC50 [4]: 100000 nM

O=c1c2c(Br)cc(Br)cc2nc(-c2ccccc2)n1-c1nc2ccccc2s1
Activity (Rattus norvegicus): 21.3%

CCNC(=O)OCc1nc2cc(C)c(C(=O)OCC)c(C)c2c(=O)n1-c1ccccc1Cl
ED30 (Oryctolagus cuniculus): 0.35 mg/kg

C[C@@H]1CC[C@H]2[C@@H](C)C(=O)O[C@@H]3O[C@@]4(C)CC[C@@H]1[C@]32OO4 [ARTEMISININ]
EC50 (Plasmodium falciparum): 2.4 nM

COc1cc2nc(-c3ccc4ccccc4c3)nc(O)c2cc1OC
selectivity ratio [3]: 13.2 | EC50 [4]: 7590 nM | IC50 [4]: 100000 nM

CCCCS(=O)(=O)NC(CCCc1ccc2[nH]c(=O)n(CCC3CCNCC3)c(=O)c2c1)C(=O)O (configuration not stated)
IC50 (Canis familiaris): 210 nM

CCc1nc(-n2c(-c3ccccc3)nc3ccc(Br)cc3c2=O)nc(N)c1-c1ccc(Cl)cc1
IC50 (Vaccinia virus [5]): 0.424 µg/mL (≈ 0.796 µM) | MIC (Vaccinia virus [6]): 1.92 µg/mL (≈ 3.6 µM)

Cc1cccc(-n2c(=O)c3ccccc3n3c(CCl)nnc23)c1
Activity (Mus musculus [1]): 4%

CCCCS(=O)(=O)NC(CCCc1ccc2c(c1)c(=O)n(CCC1CCNCC1)c(=O)n2Cc1ccncc1)C(=O)O (configuration not stated)
IC50 (Canis familiaris): 210 nM

Nc1ccc(-c2nc(S)c3cc4c(cc3n2)OCO4)cc1
ED50 (Mus musculus [7]): 36.6 µmol/kg | ED50 (Mus musculus [8]): 68.3 µmol/kg

O=c1c2ccccc2nc(S)n1NCNc1ccccn1
Activity [9]: 25% | Activity [10]: 27%

CCc1nnc2n(-c3cccc(C)c3)c(=O)c3ccccc3n12
Activity (Mus musculus [1]): 4%

COc1cccc(-c2nc(O)c3cc(OC)ccc3n2)c1
EC50 (Ovarian carcinoma cell): < 5 µg/mL | EC50 [11]: < 5 µg/mL

COc1cccc2c(=O)n(Cc3ccccc3)c(SCCCN3C(=O)c4ccccc4C3=O)nc12
IC50 (HeLa): 1850 nM | IC50 (MDA-MB-231): 1850 nM

Nc1nc(O)c2c(Cl)c(CNc3ccc(C(=O)NC(CCC(=O)O)C(=O)O)cc3)ccc2n1 (configuration not stated)
IC50 (CCRF-CEM): 1800 nM | IC50 (WIL2): 1800 nM

O=c1c2ccccc2nc(S)n1NCNc1ccccc1
Activity [9]: 25% | Activity [10]: 27%

Oc1nc(-c2ccc(F)cc2)nc2cc3c(cc12)OCO3
ED50 (Mus musculus [7]): 17.7 µmol/kg

CCOC(=O)c1c(C)cc2nc(COC(=O)NC)n(-c3ccccc3Cl)c(=O)c2c1C
ED30 (Oryctolagus cuniculus): 2.8 mg/kg

Cc1nc2ccccc2c(=O)n1NCN1CCOCC1
Activity [9]: 21% | Activity [10]: 25%

Nc1nc2c(ncn2COC(CO)CO)c(=O)[nH]1 [GANCICLOVIR]
EC50 (Cytomegalovirus): 2600 nM

Cc1ccccc1-n1c(C)nc2ccccc2c1=O [METHAQUALONE]
Activity (Mus musculus [12]): 20% | Time (Mus musculus [13]): 119.7 min | Time (Mus musculus [14]): 5.5 min

COC(=O)CCC(NC(=O)c1ccc(N(C)Cc2ccc3nc(C)[nH]c(=O)c3c2)s1)C(=O)OC (configuration not stated)
IC50 (CCRF-CEM): 2100 nM | IC50 (WIL2): 1800 nM

C[C@H]1[C@H](OC(=O)CCC(=O)O)O[C@@H]2O[C@@]3(C)CC[C@H]4[C@H](C)CC[C@@H]1[C@@]24OO3 [ARTESUNATE]
EC50 [15]: 500 nM

NC1=Nc2ccccc2C2(CC2)N1
EC50 [16]: 100000 nM

CCCCS(=O)(=O)NC(CCCc1ccc2c(c1)c(=O)n(CCC1CCNCC1)c(=O)n2C)C(=O)O (configuration not stated)
IC50 (Canis familiaris): 210 nM

COC(=O)CCC(NC(=O)c1ccc(NCc2ccc3nc(N)[nH]c(=O)c3c2Cl)s1)C(=O)OC (configuration not stated)
IC50 (CCRF-CEM): 2100 nM | IC50 (WIL2): 1800 nM

Cc1ccc2nc(SCCCN3C(=O)c4ccccc4C3=O)n(Cc3ccccc3)c(=O)c2c1
IC50 (HeLa): 1850 nM | IC50 (MDA-MB-231): 1850 nM
